Assay results taken from patent publication US12054746B2, “Method for inducing differentiation of pluripotent stem cells into intestinal epithelial cells” (PUBLIC UNIVERSITY CORPORATION NAGOYA CITY UNIVERSITY, priority 2018, dated 2024).
Where two headings read alike, the source gives them in different places.

Assays:
[1] = in vitro; details: human
Procedure: (§1) Human iPS cells (FF-1) were treated with a serum-free medium containing 100 ng/mL activin A for 24 hours to initiate differentiation. […] Thereafter, the cells were cultured in Advanced DMEM/F-12 containing 2% FBS, 1% GlutaMax, 100 units/mL penicillin G, 100 μg/mL streptomycin sulfate, and 250 ng/mL FGF2 for 96 hours to differentiate into small intestine stem cells. The small intestine stem cell-like cells after the treatment with activin A and FGF2 were detached with Aecutase and seeded on GFR Matrigel which was diluted 30-fold with human iPS medium in advance. After seeding, the cells were cultured for 19 to 23 days in Advanced DMEM/F-12 containing 2% FBS, 0.1 mM NEAA, 2 mM L-Glu, 100 units/mL penicillin G, 100 μg/mL streptomycin sulfate, 2% B27 supplement, 1% N2 supplement, 1% HepExtend supplement, 20 ng/mL EGF, and 30 μM Forskolin. From 12 to 16 days before the end of differentiation, differentiation into small intestinal epithelial cells was induced was by adding PD98059 to 20 μM, 5-aza-2′-deoxycytidine (5-aza-2′-dC) to 5 μM, and A-83-01 to 0.5 μM.
(§2) HESS (pH 6.5) was added to a chamber on the apical side of human iPS cell-derived small intestinal epithelial cells and Caco-2 cells seeded on Cell culture insert, HBSS (pH 7.4) was added to a chamber on the basal side, and pre-incubated at 37° C. for 60 minutes. […] A sample was collected from the receiver chamber every 15 minutes. The unchanged substance was measured using UPLC-MS/MS. Fa·Fg in humans was referred from, previous reports (References 1 to 6 below). • Reference 1: Takenaka T, Harada N, Kuze J, Chiba M, Iwao T, Matsunaga T. Human small intestinal epithelial cells differentiated from adult intestinal stem cells as a novel system for predicting oral drug absorption in humans. Drug Metab Dispos. […] Expert Opin Drug Metab Toxicol.

[2] = in vitro; details: human, Caco-2
Procedure: as §2

[3] = cited from earlier work
[4] = tested on: human iPS cells; assay: Marker gene expression (real-time RT-PCR) after induction of differentiation of human iPS cells into intestinal epithelial cells; type: cell-based
Procedure: Induction of differentiation of human iPS cells into intestinal epithelial cells was started in a state where undifferentiated colonies of the human iPS cells accounted for about 70% of the culture dish. […] was induced to differentiate into endoderm by culturing for two days in Roswell Park Memorial Institute (RPMI)+Glutamax medium containing 0.5% FBS, 100 ng/mL activin A, 100 units/mL penicillin G, and 100 μg/mL streptomycin and then culturing for one day in RPMI+Glutamax medium, containing 2% FBS, 100 ng/mL activin A, 100 units/ml penicillin G, and 100 μg/mL streptomycin. Then, the cells were cultured in DMEM/F12 containing 2% FBS, 1% Glutamax, and 250 ng/mL FGF2 for 4 days to induce differentiation into intestinal stem cells. After this treatment, Y-27632 (Rho-binding kinase inhibitor) was added so that the concentration was 10 μmol/L, and the cells treated at 37° C. for 60 minutes in a CO2 incubator under the condition of 5% CO2/95% air were treated with actase for detaching. The detached cells were seeded on a 24-well cell culture plate coated with Matrigel which was diluted 30-fold with a human iPS cell culture medium and from which growth factors was removed. […]

[5] = tested on: intestinal epithelial cell-like cells derived from human iPS cells; assay: Drug metabolism experiment (CYP3A4 and UGT activity) in intestinal epithelial cell-like cells derived from human iPS cells; type: cell-based; details: experiment 4, FF-1, Forskolin instead of 8-Br-cAMP from day 12 (FIG. 10)
Procedure: In experiment 3, the FF-1 strain was cultured for 5 days (day 0 to 5) to induce differentiation into endoderm, 4 days (day 5 to 9) to induce differentiation into intestinal stem cells, and 18 days (day 10 to 28) to induce differentiation into intestinal epithelial cells. In experiment 4, the FF-1 strain was cultured for 7 days (day 0 to 7) to induce differentiation into endoderm, 4 days (day 7 to day 11) to induce differentiation into intestinal stem cells, and 18 days (day 12 to day 30) to induce differentiation into intestinal epithelial cells. […]
After completing the differentiation induction, the differentiated cells were cultured at 37° C. in a culture medium (DMEM/F12 containing 1% Glutamax, 1% NEAA, 1% N2 supplement, 100 units/mL penicillin G, 100 μg/mL streptomycin, and 20 ng/mL EGF) containing 5 μmol/L midazolam and 10 μmol/L 7-hydroxycoumarin, and the culture medium was sampled after 24 hours (experiments 3 and 4) or 2 hours (experiment 5). The metabolic activity was calculated from the amount of 1-hydroxymidazolam or 7-hydroxycoumarin glucuronide in the culture medium, which was measured using a liquid chromatography-mass spectrometer (LC-MS/MS). After completing the metabolic experiment, protein quantification was performed, and the metabolic activity was corrected with the amount of protein.

[6] = tested on: human iPS cell-derived small intestinal epithelial cells; assay: in vitro
Procedure: as §1, §2

[7] = tested on: Caco-2 cells; assay: in vitro
Procedure: as §2

[8] = in humans, from References 1 to 6

Compound	Papp A→B at 60 min [1]	Papp A→B at 60 min [2]	Fa · Fg/100 [3, 8]	other results
CCCC(=O)Nc1ccc(OCC(O)CNC(C)C)c(C(C)=O)c1 (stereo not shown) [Acebutolol, acebutolol]	2.3 ×10⁻⁶ cm/s	0.35 ×10⁻⁶ cm/s		
Cc1cc(=O)n(-c2ccccc2)n1C [Antipvrine, antipyrine]	55.6 ×10⁻⁶ cm/s			
Cn1c(=O)c2c(ncn2C)n(C)c1=O [Caffeine, caffeine]	52.4 ×10⁻⁶ cm/s			
CCOC(=O)[C@H](CCc1ccccc1)N[C@@H](C)C(=O)N1CCC[C@H]1C(=O)O [Enalapril, enalapril]	1.93 ×10⁻⁶ cm/s	0.19 ×10⁻⁶ cm/s	0.6	
CC[C@H]1OC(=O)[C@H](C)[C@@H](O[C@H]2C[C@@](C)(OC)[C@@H](O)[C@H](C)O2)[C@H](C)[C@@H](O[C@@H]2O[C@H](C)C[C@H](N(C)C)[C@H]2O)[C@](C)(O)C[C@@H](C)C(=O)[C@H](C)[C@@H](O)[C@]1(C)O [Erythromycin, erythromycin]	1.24 ×10⁻⁶ cm/s	0.45 ×10⁻⁶ cm/s		
C=C[C@@]1(C)CC(=O)[C@]2(O)[C@@]3(C)[C@@H](O)CCC(C)(C)[C@@H]3[C@H](O)[C@H](OC(C)=O)[C@@]2(C)O1 [Forskolin]				effect on the expressions of CYP3A4 and ABCB1/MDR1 ([4]; experiment 1, Windy, compared with 8-Br-cAMP): drastically exceeded that of 8-Br-cAMP; expression level of CYP3A4 and SGLT1 ([4]; experiment 2, Windy, Forskolin alone day 8 to 26, vs 8-Br-cAMP and IBMX in combination (FIG. 5)): significantly increased; CYP3A4 activity [5]: further significant increase
NS(=O)(=O)c1cc2c(cc1Cl)NCNS2(=O)=O [Hydrochlorothiazide, hydrochlorothiazide]	4.4 ×10⁻⁶ cm/s	2.44 ×10⁻⁶ cm/s	0.67	
CN(C)C(=N)N=C(N)N [Metformin, metformin]	2.43 ×10⁻⁶ cm/s	0.52 ×10⁻⁶ cm/s	0.71	
Cc1ncc2n1-c1ccc(Cl)cc1C(c1ccccc1F)=NC2 [Midazolam, midazolam]			0.369	Papp A→B [1]: 48.3 ×10⁻⁶ cm/s; Papp A→B [2]: 38.7 ×10⁻⁶ cm/s
NC(=O)c1ncn([C@@H]2O[C@H](CO)[C@@H](O)[C@H]2O)n1 [Ribavirin, ribavirin]	3.3 ×10⁻⁶ cm/s	0.32 ×10⁻⁶ cm/s	0.85	
CCN1CCCC1CNC(=O)c1cc(S(N)(=O)=O)ccc1OC (stereo not shown) [Sulpiride, sulpiride]	1.45 ×10⁻⁶ cm/s			
C=CC[C@@H]1/C=C(\C)C[C@H](C)C[C@H](OC)[C@H]2O[C@@](O)(C(=O)C(=O)N3CCCC[C@H]3C(=O)O[C@H](/C(C)=C/[C@@H]3CC[C@@H](O)[C@H](OC)C3)[C@H](C)[C@@H](O)CC1=O)[C@H](C)C[C@@H]2OC [Tacrolimus, tacrolimus]	14.3 ×10⁻⁶ cm/s	12.3 ×10⁻⁶ cm/s	0.136	
lucifer yellow				Papp A→B [6]: 0.3 ×10⁻⁶ cm/s; Papp A→B [7]: 0.06 ×10⁻⁶ cm/s; Fa · Fg/100 ([3]; in vivo): 0
